Test results published in patent publication US7708989B2, “Methods of treating vascular diseases characterized by nitric oxide insufficiency” (NitroMed, Inc., priority 1999, dated 2010).
“Also recorded” adds a separate entry of the source.

Key:
forearm microvessels [1] = experiment: Forearm blood flow responses to intra-arterial infusions by venous occlusion plethysmography in white and black hypertensive patients; format: in vivo, human; settings: intra-arterial infusion
forearm microvessels [2] = experiment: Forearm blood flow responses by venous occlusion plethysmography in normotensive white and black patients; format: in vivo, human; settings: 46 normotensive white and black patients matched for age and gender
Method: FIGS. 3A and 3B show forearm blood flow responses to nitroprusside (FIG. 3A) and methacholine (FIG. 3B) that were assessed by venous occlusion plethysmography in 25 white and 21 black patients without hypertension.
To investigate the issue of whether NO deficiency is a primary or secondary phenomenon in hypertensive black patients, 46 normotensive white and black patients who were matched for age and gender were compared. […] These findings are consistent with recently published results by other investigators (Lang et al, N EngI J Med, 333:155-160 (1995); Cardillo et al, Hypertension 31:1235-1239 (1998)).

forearm microvessels [3] = experiment: Forearm microvascular vasodilator responses in salt-sensitive versus salt-resistant normotensive black patients; format: in vivo, human
Method: To explore the relation between salt-sensitivity and endothelium-derived NO action in black patients prior to the development of hypertension, the blood pressure response to salt-loading and salt-deprivation using an established inpatient protocol (Weinberger et al, Hypertension, 8:II-127-II-134 (1986)) in a group of normotensive black patients was assessed. Briefly, blood pressure was continuously monitored non-invasively during a salt load (sodium 458 mEq over 24 hours) and during a period of salt depletion (furosemide treatment and sodium intake 10 mEq over 24 hours). Patients were considered to be salt-sensitive if mean blood pressure was at least 10 mm Hg higher during the salt loading period (Weinberger et al, Hypertension, 8:II-127-II-134 (1986)).

[4] = cited from earlier work
conduit arteries = experiment: Conduit vessel function by brachial ultrasound technique (nitroglycerin-mediated dilation); format: in vivo, human; settings: for NTG-response (%): mean ± SD
Source text: The effects of hypertension and race on conduit vessel function were examined using a well-established brachial ultrasound technique (Vita et al, Lanzer & Lipton, Eds., Diagnostics of Vascular Diseases: Principles and Technology. Berlin:Springer-Verlag, pp.249-259 (1996)) in 370 patients (178 black, 192 white). […] Further, systolic blood pressure was inversely correlated with flow-mediated dilation (r=−0.30, P<0.001) and nitroglycerin-mediated dilation (r=−0.33, P<0.001). Diastolic pressure correlated to a similar extent with vascular function. By multiple linear regression analysis, vessel size and systolic blood pressure were the only independent predictors of flow-mediated dilation in this sizable group of patients.

CC(=O)OC(C)C[N+](C)(C)C (stereo not shown) [methacholine]
vasodilator (forearm blood flow) response, black compared to white hypertensive patients (forearm microvessels [1]; 36 white and black hypertensive patients): impaired; also recorded: markedly worse | dilator response, hypertensive patients compared to age-matched normotensive controls (forearm microvessels [1]; hypertensive versus normotensive controls): significantly reduced | vasodilator response, black compared to white normotensive patients (forearm microvessels [2]): no racial difference; also recorded: not significantly different | vasodilator response, salt-sensitive compared to salt-resistant patients (forearm microvessels [3]; normotensive black patients, repeated measures ANOVA): trends for impaired vasodilator responses

O=[N+]([O-])O[C@H]1CO[C@H]2[C@@H]1OC[C@H]2O[N+](=O)[O-] [isosorbide dinitrate, 1,4,3,6-dianhydro-D-glucitol-2,5-dinitrate]
solubility in organic solvents ([4]; organic solvents such as ethanol, ether and chloroform): freely soluble | solubility in water ([4]; water): sparingly soluble

COc1ccc(CCN(C)CCCC(C#N)(c2ccc(OC)c(OC)c2)C(C)C)cc1OC (stereo not shown) [verapamil]
vasodilator response, salt-sensitive compared to salt-resistant patients (forearm microvessels [3]; human, in vivo): equivalent

O=[N+]([O-])OCC(CO[N+](=O)[O-])O[N+](=O)[O-] [nitroglycerin]
nitroglycerin-mediated dilation according to race (conduit arteries; 370 patients (178 black, 192 white)): no significant differences | NTG-response (%) (conduit arteries; Black Patients, Hypertensive, p < 0.001 compared to race matched normotensives): 16.4 ± 7.1 % | NTG-response (%) (conduit arteries; Black Patients, Normotensive): 20.6 ± 8.4% | NTG-response (%) (conduit arteries; White Patients, Hypertensive, p < 0.001 compared to race matched normotensives): 14.6 ± 6.2 % | NTG-response (%) (conduit arteries; White Patients, Normotensive): 18.1 ± 8.1% | effect of hypertension on nitroglycerin-mediated dilation (conduit arteries; hypertensive versus normotensive patients): highly significant reduction
